IC50 data for one compound are collected here from publication PMC4960700, “In vivo and in vitro inhibition of rat liver glutathione transferases activity by extracts from Combretum zeyheri (Combretaceae) and Parinari curatellifolia (Chrysobalanaceae)” (BMC Complementary and Alternative Medicine, 2016).

Converted amounts (≈) assume the structure as drawn. “And” between values parts separate entries of the source, which are not always exact repeats. Identical values can stand only once.

In one assay the target is rat liver GSTs. The assay can be described thus: In vitro GST enzyme assay (CDNB/GSH) with liver cytosolic fractions of control rats. It is filed as biochemical, male Sprague–Dawley rats. Particulars: CDNB substrate. The procedure:
(§1) Throughout the procedure tissue fractions were kept cold (0–4 °C) by using pre-cooled homogenization medium (50 mM Tris–HCl containing 0.154 M KCl) and keeping centrifuge rotors, tissue homogenizer, measuring cylinders, beakers and centrifuge tubes in ice. Excess blood was removed from the liver by perfusing the livers with ice cold normal saline using a Pharmacia LKB pump P-1 (Pharmacia, Uppsala, Sweden) at a flow rate of 50 ml/h through the still beating heart then gently blotting with dry tissue paper. Perfusion was performed in situ to remove blood. The livers and kidneys were removed and blotted dry. The liver or kidney samples were, weighed, wet mass recorded and livers quickly transferred to a homogenizing vessel, which was kept, on ice. Homogenizing medium 50 mM Tris–HCl pH 7.4 containing 154 mM KCl was added to each sample (5 ml/g of liver). The liver or kidney samples were cut into suitable pieces and homogenized with a motor driven Potter-Elvehjem homogenizer type R2R (Heidolph Elektro KG., Kelheim, Germany). […] The final volume was recorded and “parafilm ^TM” (Sigma-Aldrich Co., Steinheim, Germany) was added to cover. […] Protein content in the liver and kidney cytosolic fractions was determined using the Lowry method. The total GST activity in cell supernatants was measured spectrophotometrically using final concentrations of 1 mM 1-chloro-2,4-dinitrobenzene (CDNB) and 1 mM glutathione, as substrates in 0.1 M potassium phosphate buffer pH 6.5, and GST (0.125 mg/ml protein). Cytosolic glutathione transferases activities were assessed using 0.5 mg/ml and 2 mg/ml enzyme dilutions for the liver and kidney samples respectively. […] GST mediated conjugation of 1-chloro-2, 4- dinitrobenzene (CDNB) to glutathione (GSH) was measured using 96-well microtitre plates in a microplate reader (Biokinetics reader EL 340 microplate, Highland Park, 998, Winsooki, VT, USA). […] After addition of CDNB, the plate was transferred to the microplate reader. The plate was read at 5-min intervals for a total of 15 min.

A further assay has as its target kidney GSTs. The assay can be described thus: In vitro GST enzyme assay (CDNB/GSH) with kidney cytosolic fractions of control rats. It is filed as biochemical, male Sprague–Dawley rats. The settings on record: CDNB substrate. The procedure: as §1

With `C=C(CC)C(=O)c1ccc(OCC(=O)O)c(Cl)c1Cl` [ETA, ethacrynic acid], the IC50 (usually the concentration that inhibits the measured activity by half) at rat liver GSTs (liver cytosol from corn oil-treated control group, P. curatellifolia experiments) is 10 µg/mL (≈ 33 µM); against rat liver GSTs (liver cytosol from normal saline treated control group, P. curatellifolia experiments), 5.8 µg/mL and 6 µg/mL; on rat liver GSTs (liver cytosol from saline-treated control group, C. zeyheri experiments), 5.4 µg/mL (≈ 17.8 µM); against kidney GSTs (kidney cytosol from corn oil-treated control group, P. curatellifolia experiments), 3.7 µg/mL (≈ 12.2 µM); against kidney GSTs (kidney cytosol from normal saline treated control group, P. curatellifolia experiments) it was 7.36 µg/mL and 7.4 µg/mL; at kidney GSTs (kidney cytosol from saline-treated control group, C. zeyheri experiments), 10 µg/mL (≈ 33 µM).
